One assay deals with T1, LD1 (beef heart) (Bos taurus, UniProt Q5E9B1).
T1 construct: Beef heart LDH (Sigma Chemical Co., Type III); purchased Sigma Chemical Co. Type III; host or cells: beef heart
Briefly: LDH activity assay (pyruvate + NADH, absorbance decrease at 340 nm). The class given is biochemical. Particulars: DSS 8.65 mM; CP 1 mM; FIG. 1B. How it is done:
(§1) The assay for LDH activity in both the absence and presence of surfactant was conducted as follows. […] The resulting solution contains approximately 5 units/ml. […] To the equilibrated solution […]. of the enzyme solution was added, and the cuvette was rapidly shaken while covering the top of the cuvette with a small piece of Parafilm® and placed back into the spectrophotometer.
(§2) Amphiphile solutions were prepared by weighing out a given amount of amphiphile, e.g., 100 mg, and preparing a stock solution in 30 mM sodium phosphate buffer in 100 ml. volumetric flask. Solutions of lower amphiphile concentration were prepared by making the appropriate dilutions from the stock solution.
(§3) The LDH enzyme assay (pyruvate+NADH→) is measured by the decrease in NADH absorbance at 340 nm with respect to time.

Another assay concerns the target T2, LD5 (rabbit muscle) (Oryctolagus cuniculus, UniProt P13491).
T2 construct: rabbit muscle LDH (Sigma Chemical Co., Type V); purchased Sigma Chemical Co. Type V; host or cells: rabbit muscle
The description is as above. The format is biochemical. How it is done:
as §1, §2, §3

Another assay addresses T3, LD2 (Sus scrofa, UniProt P00336+P00339).
T3 construct: porcine LDH, LD1, LD2, LD3, LD4 and LD5 in the form of ammonium sulfate suspensions
Briefly: LDH activity assay with amphiphile, LDH isoenzymes. The format is biochemical, porcine. Conditions: pH 7.4, read-out: LD2 activity remaining relative to buffer. How it is done:
(§4) 3. Beef heart LDH (Sigma Chemical Co., Type III), rabbit muscle LDH (Sigma Chemical Co., Type V) and porcine LDH, LD1, LD2, LD3, LD4 and LD5 in the form of ammonium sulfate suspensions were used for these examples.
as §1, §2

Assay [1] addresses T4, LDH isoenzymes (LD5 in the presence of LD1) (Oryctolagus cuniculus, UniProt P13491).
T4 construct: LD1 (LDHB tetramer) only as comparison
As to the kind of experiment: Anionic amphiphiles tested for specific interaction with LDH isoenzymes (Table 2). The class given is biochemical. As for the experimental part: as §1, §2
A number of anionic amphiphiles were investigated for specific inactivation of LD5 in the presence of LD1 and these compounds are listed in Table 2.

The next assay addresses T5, human LD1 (Homo sapiens, UniProt P07195).
T5 construct: A specific human LDH isoenzyme (obtained from liver homogenate or red blood cell); from tissue; host or cells: human liver homogenate or red blood cell
Briefly: LDH assay with human enzyme-containing serum. The format is biochemical. Conditions: 0.1 M DSS; pH 7.8; 14% protein. How it is done: as §1
(§5) Pooled human serum, kept frozen until ready for use, was raised to pH 11.5 until all LDH activity was destroyed. The pH was then adjusted to 7.4 and the serum was again assayed for LDH activity to ensure that no LDH had been reactivated. A specific human LDH isoenzyme (obtained from liver homogenate or red blood cell) was then added to the pool to give an enzyme concentration of ~100 U/l. The spiked serum samples were refrigerated between uses and respiked when necessary. Fresh serum was prepared weekly.
(§6) 8. The assay method used is the same as described above for Examples 1-12, except that the test samples consisted of 25-30 μl of serum instead of 100 μl of aqueous enzyme solution.

Another assay concerns the target T6, human LD2 (Homo sapiens, UniProt P00338+P07195).
T6 construct: A specific human LDH isoenzyme (obtained from liver homogenate or red blood cell); from tissue; host or cells: human liver homogenate or red blood cell
Briefly: LDH assay with human enzyme-containing serum. The format is biochemical. Particulars: 0.1 M DSS; pH 7.8; 14% protein. How it is done:
as §1, §5, §6

The next assay deals with T7, human LD3 (Homo sapiens, UniProt P00338+P07195).
T7 construct: A specific human LDH isoenzyme (obtained from liver homogenate or red blood cell); from tissue; host or cells: human liver homogenate or red blood cell
Briefly: LDH assay with human enzyme-containing serum. The class given is biochemical. Particulars: 0.1 M DSS; pH 7.8; 14% protein. How it is done:
as §1, §5, §6

Another assay has as its target T8, human LD4 (Homo sapiens, UniProt P00338+P07195).
T8 construct: A specific human LDH isoenzyme (obtained from liver homogenate or red blood cell); from tissue; host or cells: human liver homogenate or red blood cell
As to the kind of experiment: LDH assay with human enzyme-containing serum. The class given is biochemical. Conditions: 0.1 M DSS; pH 7.8; 14% protein. As for the experimental part: as §1, §5, §6

In the next assay the target is T9, human LD5 (Homo sapiens, UniProt P00338).
T9 construct: A specific human LDH isoenzyme (obtained from liver homogenate or red blood cell); from tissue; host or cells: human liver homogenate or red blood cell
As to the kind of experiment: LDH assay with human enzyme-containing serum. The format is biochemical. Particulars: 0.1 M DSS; pH 7.8; 14% protein. How it is done:
as §1, §5, §6

Another assay addresses T10, mMDH (Sus scrofa, UniProt P00346).
T10 construct: Porcine cMDH and mMDH were used as ammonium sulfate suspensions
T10 sequence (P00346 25-338): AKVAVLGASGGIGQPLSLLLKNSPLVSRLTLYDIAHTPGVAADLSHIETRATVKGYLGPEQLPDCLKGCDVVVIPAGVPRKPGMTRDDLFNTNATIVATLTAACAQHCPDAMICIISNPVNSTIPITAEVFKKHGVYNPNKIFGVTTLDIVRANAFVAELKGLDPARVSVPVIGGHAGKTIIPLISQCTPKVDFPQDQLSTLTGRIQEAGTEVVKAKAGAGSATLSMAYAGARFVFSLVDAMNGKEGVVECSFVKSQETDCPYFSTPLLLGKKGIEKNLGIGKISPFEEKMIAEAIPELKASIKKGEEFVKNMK
As to the kind of experiment: Assay for MDH (oxalacetic acid + NADH, 340 nm). The format is biochemical, porcine. Conditions: FIG. 17. As for the experimental part: 1. Porcine cMDH and mMDH were used as ammonium sulfate suspensions. Typically, 5 μl of the enzyme stock solutions were diluted to 10 ml with 30 mM phosphate buffer, pH 7.4, prior to use. The resulting enzyme solutions were stored in ice water; 100 μl aliquots were withdrawn for assay except where another amount is specified.
The assay is based on conversion of oxalacetic acid to malate in the presence of NADH and MDH. The assay was made [formula] in 30 mM phosphate buffer, at ambient temperature, with and without appropriate surfactant concentrations, and contained 0.17 mM OAA and 0.13 mM NADH. The reaction was followed by monitoring the decrease in absorbance at 340 nm using either a Beckman 25 or Cary 118 spectrophotometer. The OAA solutions were stored over ice to prevent hydrolysis to pyruvic acid.

In assay [2] the test system is isoenzymes of creatinine phosphokinase (CPK). Briefly: Conventional coupled CPK assay (hexokinase, glucose-6-phosphate dehydrogenase). The format is biochemical. Particulars: conventional assay with coupled reactions, hexokinase and glucose-6-phosphate dehydrogenase. From the text:
Of course, the particular amphiphile used and the concentration at which it is used will depend upon the particular isoenzyme being assayed. Not every amphiphile will have a discriminatory effect on the activity of isoenzymes in each isoenzyme system.

A further assay deals with LD1 and LD5. As to the kind of experiment: Screening of amphiphiles for ability to discriminate between LD1 and LD5.
The next assay has as its target LD1 (Sus scrofa, UniProt P00336). Briefly: LDH activity assay with amphiphile, LDH isoenzymes. The class given is biochemical, porcine. Details: porcine LDH, LD1, LD2, LD3, LD4 and LD5 in the form of ammonium sulfate suspensions. How it is done: as §4, §1, §2
In a further assay the target is LD5 (Sus scrofa, UniProt P00339). Briefly: LDH activity assay with amphiphile, LDH isoenzymes. The class given is biochemical, porcine. Details: LD5 from two different species, i.e., rabbit muscle and hog muscle; from tissue; host or cells: hog muscle. Conditions: 7 mM DSS; FIG. 8. How it is done: as §4, §1, §2

Like-named read-outs stand apart in the source and are kept apart here. Bounds are passed on as bounds.

One may read the remaining activity as the signal under treatment as a percentage of the control signal.

Description for LD1 and LD5: A series of solutions was prepared covering a range of concentrations for each amphiphile to be tested. The activities of both LD1 and LD5 were determined in the presence of the various concentrations of each amphiphile and compared with enzyme activities in buffer (relative activity).
Enzyme activity in the presence and absence of amphiphile was measured by the following procedure: Stock solutions of NADH (4 mM) and pyruvate (40 mM) were prepared daily in 30 mM sodium phosphate buffer, pH 7.4. Enzyme solutions were prepared daily by withdrawing 5 μl of the stock enzyme solutions with a Hamilton syringe and diluting to 5 ml with 30 mM sodium phosphate buffer. (The resulting solution contains approximately 5 U of enzyme/ml.) The enzyme assay was run by pipetting 2.7 ml of buffer or buffer surfactant solution into a 10 mm path length quartz cuvette, and 100 μl each of NADH and pyruvate stock solutions were added. […] Enzyme solution was added with good mixing; the absorbance decrease at 340 nm was measured as a function of time. The rate of the reaction was determined by measuring the slope of the initial absorbance decrease, i.e., within the first 50 seconds of the reaction.

On to `CCCCCCCCCCOS(=O)(=O)[O-].[Na+]` [DSS, sodium decylsulfate], for which the “LD1 (beef heart) activity in the presence of amphiphile” value on LD1 (beef heart) is on record as “almost no loss in LD1 activity”. On LD5 (rabbit muscle) (DSS 8.65 mM, CP 1 mM, FIG. 1A), the “LD5 (rabbit muscle) activity in the presence of amphiphile” value was “rapidly inactivates”. On LD5 (rabbit muscle) (anionic detergent (DSS), dead time of the instrument), the “time to complete inactivation of LD5” value is not above 5 s. In addition, the remaining activity at 7000 µM on LD2 is approximately 60%; at LD1 (pH 7.4, read-out: LD1 activity remaining relative to buffer), approximately 65%. For the same compound, the “Interaction (specific inactivation of LD5 in the presence of LD1)” value in [1] is recorded as “useful positive results”; in assay [1] (listed as sodium decylsulfate), “specific”. The “human LD1 activity” value at human LD1 was “fully active”. In addition, the “human LD2 activity” value at human LD2 is recorded as “completely deactivated”. For the same compound, at human LD3, the “human LD3 activity” value is “completely deactivated”. Further, the “human LD4 activity” value on human LD4 is reported as “completely deactivated”. Further, the “human LD5 activity” value on human LD5 is “completely deactivated”. At mMDH, the “inactivation of mMDH relative to cMDH” value was “clear preferential inactivation of mMDH relative to cMDH”. In addition, the “discriminatory effect on the activities of the isoenzymes of CPK” value in assay [2] is recorded as “do not appear to have any discriminatory effect”. Further, in the assay with LD1 and LD5, the “discrimination of LDH isoenzymes” value is “excellent discriminators”. The “Effectiveness (LDH isoenzyme inhibition specificity, LD1 vs LD5)” value with LD1 and LD5 (range of amphiphile concentrations, relative activity vs buffer) is “++”. The “LD1 activity in amphiphile solution compared with buffer” value at LD1 (9 mM DSS in 30 mM phosphate buffer, pH 7.4, FIG. 10) was “less than control LD1 activity in buffer”. In addition, the “isoenzyme activity beyond 9 mM amphiphile” value on LD1 (DSS beyond 9 mM, FIG. 8) was “only LD1 continues to show activity”. On LD5, the “LD5 activity relative to buffer” value is “all the LD5 and LD4 activity is destroyed”.

The values are drawn from patent US4250255A, “Assay method for isoenzyme activity” (Eastman Kodak Company, priority 1977, dated 1981).
